The results in this text go back to ChEMBL document CHEMBL3872207, “Aromatic heterocyclic esters of podophyllotoxin exert anti-MDR activity in human leukemia K562/ADR cells via ROS/MAPK signaling pathways” (Eur J Med Chem, 2016).

The target in experiment [1] is c-Jun N-terminal kinase, JNK (Homo sapiens) (UniProt P45983+P53779+P45984). Briefly: Induction of JNK phosphorylation in human K562/ADR cells assessed as ratio of phosphorylated JNK to beta-actin level at 0.1 uM measured after 48 hrs by Western blotting (reference value: 0.46). The experiment is classed as cell-based. Background: Immunoblotting shows a protein as a band on a membrane.

In experiment [2] the target is T1, MAP kinase p38 (Homo sapiens) (UniProt O15264+Q15759+Q16539+P53778). Briefly: Induction of P38 phosphorylation in human K562/ADR cells assessed as ratio of phosphorylated p38 to beta-actin level at 0.1 uM measured after 48 hrs by Western blotting method (reference value: 0.25). The experiment is classed as cell-based.
Experiment [3] addresses T1, MAP kinase p38 (Homo sapiens). Briefly: Induction of P38 phosphorylation in human K562/ADR cells assessed as ratio of phosphorylated p38 to beta-actin level at 0.1 uM pretreated with MAPK inhibitor U0126 for 1 hr followed by compound addition after 48 hrs by Western blotting method (reference value: 0.25). In kind it is cell-based.
Experiment [4] can be described thus: Downregulation of CDK2 expression in human K562/ADR cells assessed as ratio of CDK2 to beta-actin level at 0.1 uM pretreated with ROS scavenger NAC for 2 hrs followed by compound addition measured after 48 hrs by Western blot analysis (reference value: 0.65). In kind it is functional, cell-based.
Experiment [5] can be described thus: Downregulation of CDK2 expression in human K562/ADR cells assessed as ratio of CDK2 to beta-actin level at 0.1 uM pretreated with MAPK inhibitor U0126 for 1 hr followed by compound addition measured after 48 hrs by Western blot analysis (reference value: 0.65). In kind it is functional, cell-based.
Experiment [6] in a line: Downregulation of CyclinA expression in human K562/ADR cells assessed as ratio of CyclinA to beta-actin level at 0.1 uM pretreated with MAPK inhibitor U0126 for 1 hr followed by compound addition measured after 48 hrs by Western blot analysis (reference value: 0.64). In kind it is functional, cell-based.
Experiment [7] can be described thus: Downregulation of CyclinB1 expression in human K562/ADR cells assessed as ratio of CyclinB1 to beta-actin level at 0.1 uM pretreated with MAPK inhibitor U0126 for 1 hr followed by compound addition measured after 48 hrs by Western blot analysis (reference value: 0.77). In kind it is functional, cell-based.
A short description of experiment [8]: Downregulation of CyclinB1 expression in human K562/ADR cells assessed as ratio of CyclinB1 to beta-actin level at 0.1 uM pretreated with MAPK inhibitor SP600125 for 1 hr followed by compound addition measured after 48 hrs by Western blot analysis (reference value: 0.77). In kind it is functional, cell-based.
In experiment [9] the test system is K562/Adr. Briefly: Induction of apoptosis in human K562/ADR cells assessed as necrotic cells at 0.1 uM after 48 hrs by Annexin V-APC/7-AAD staining based flow cytometry (reference value: 0.26%). The experiment is classed as functional.
Experiment [10] relates to K562/Adr. Briefly: Induction of apoptosis in human K562/ADR cells assessed as viable cells at 0.1 uM pretreated with MAPK inhibitor U0126 for 1 hr followed by compound addition after 48 hrs by Annexin V-APC/7-AAD staining based flow cytometry (reference value: 95.31%). In kind it is functional. Particulars: read-out: Activity. Background: Flow cytometry measures light scatter and fluorescence of single cells or particles in a stream.

Experiment [11] has as its system K562/Adr. Put plainly: Induction of apoptosis in human K562/ADR cells assessed as necrotic cells at 0.1 uM pretreated with MAPK inhibitor SP600125 for 1 hr followed by compound addition after 48 hrs by Annexin V-APC/7-AAD staining based flow cytometry (reference value: 0.26%). The experiment is classed as functional. On the set-up: scale not given: the % may be the effect or the level left.

Experiment [12] concerns K562/Adr. Put plainly: Induction of apoptosis in human K562/ADR cells assessed as early apoptotic cells at 0.1 uM pretreated with MAPK inhibitor SB203580 for 1 hr followed by compound addition after 48 hrs by Annexin V-APC/7-AAD staining based flow cytometry (reference value: 2.74%). On the set-up: scale not given: the % may be the effect or the level left. The experiment is classed as functional.

The subject of experiment [13] is K562/Adr. Briefly: Induction of apoptosis in human K562/ADR cells assessed as ratio of cleaved caspase-3 to beta-actin level at 0.1 uM measured after 48 hrs by Western blot analysis (reference value: 0.06). The experiment is classed as functional.
In experiment [14] the test system is K562/Adr. Briefly: Induction of apoptosis in human K562/ADR cells assessed as ratio of cleaved caspase-3 to beta-actin level at 0.1 uM pretreated with MAPK inhibitor SB203580 for 1 hr followed by compound addition measured after 48 hrs by Western blot analysis (reference value: 0.06). The experiment is classed as functional.
A short description of experiment [15]: Downregulation of P-gp expression in human K562/ADR cells assessed as ratio of P-gp to beta-actin level at 0.1 uM measured after 48 hrs by Western blot analysis (reference value: 0.63). In kind it is functional, cell-based.

SMILES strings stand for the structures.

As to `COc1cc([C@@H]2c3cc4c(cc3[C@H](OC(=O)c3ccco3)[C@H]3COC(=O)[C@H]23)OCO4)cc(OC)c1OC`, the Ratio in experiment [1] was determined as 0.83; in experiment [2], 0.46; in experiment [3], 0.21; in experiment [4], 0.43; in experiment [5], 0.26; in experiment [6], 0.41. In addition, the Ratio in [7] worked out at 0.51; in experiment [8] it was 0.25; in the experiment with K562/Adr [13] it was 0.68; in the experiment with K562/Adr [14], 0.52; in experiment [15], 0.07. Also, the Activity is given as 5.49% in the experiment with K562/Adr [9], 3.42% with K562/Adr [11] and 6.84% in the experiment with K562/Adr [12]. Also, the viability at 0.1 µM with K562/Adr [10] is 56.5%.
